Measurements published in patent US20090012018A1, “Inhibition of pancretic cancer cell growth” (priority 2004, published 2009).
Entries after “also recorded” stand apart in the source; their conditions may differ.

Columns and labels:
Assay type in all cases: cell-based, human
[1] = tested on: Wnt signaling (Top-Flash reporter); test: Fop/Top-Flash luciferase reporter assay; settings: CFPAC-1, BxPC3, L3.6sl, Panc4.21, 24 hrs after transfection, sulindac 250 μM, sulindac sulfone 150 μM, cyclopamine 10 μM, or co-transfection
Procedure: The cell lines were plated the day prior to transfection at a density of 8×10^4 cells/well in a 24-well plate. The luciferase reporter constructs used included: Top-Flash and Fop-Flash containing multimerized Tcf-Lef binding sites or nonfunctional sites, respectively; TK-Luc (Promega); and GliBS containing 8×Gli binding sites upstream of the TK minimal promoter (Sasaki et al., Development, 124:1313-1322, 1997). In different experiments, the reporter constructs were co-transfected with an expression vector containing a dominant-negative form of Lef1 or the endogenous Wnt inhibitor Icat. The dominant negative Lef1 (gift from S. Pleasure) was generated by cloning the 63 amino acid N-terminal deleted form of Lef1 into the pEF5 plasmid. This construct also contains an IRES-EGFP cassette. The cDNA coding for the Icat protein was cloned into pIRES2-EGFP (BD Biosciences Clontech). Transfections were performed using the Effectene transfection reagent […] according to the user's manual. A Renilla luciferase plasmid (Promega) was included to control for transfection efficiency. Transfected cells were cultured in medium containing serum. […] Cells were harvested 24 hrs after transfection, and luciferase activity was assayed using the Dual Luciferase kit (Promega), according to the user's manual.
For each Fop-luciferase or Top-luciferase experiment, a renilla luciferase construct was included. For each experimental condition (drug treatment, co-transfection or siRNA), triplicate Top- and Fop-luciferase samples were analyzed. To equilibrate the total vector-DNA (or siRNA) amount in all samples, equivalent amounts of an empty expression vector or unrelated siRNAs were transfected into control samples. The following equations were used to obtain the normalized luciferase values and the relative (fold) activation. The firefly luciferase (Fop and Top) values were divided by the renilla luciferase values to obtain the normalized luciferase values. The normalized Top values for each condition were divided by the Fop values of the same condition (e.g., untreated Top/untreated Fop; drug-treated Top/drug-treated Fop). […] To minimize the number of bars in each figure, only representative average Fop values are included in the graphs.

[2] = tested on: Hedgehog signaling (GliBS-luc reporter); test: GliBS-luciferase reporter assay; settings: CFPAC-1, BxPC3, L3.6sl, Panc4.21; cyclopamine 10 μM, sulindac 250 μM; FIG. 4B
Procedure: The cell lines were plated the day prior to transfection at a density of 8×10^4 cells/well in a 24-well plate. The luciferase reporter constructs used included: Top-Flash and Fop-Flash containing multimerized Tcf-Lef binding sites or nonfunctional sites, respectively; TK-Luc (Promega); and GliBS containing 8×Gli binding sites upstream of the TK minimal promoter (Sasaki et al., Development, 124:1313-1322, 1997). In different experiments, the reporter constructs were co-transfected with an expression vector containing a dominant-negative form of Lef1 or the endogenous Wnt inhibitor Icat. The dominant negative Lef1 (gift from S. Pleasure) was generated by cloning the 63 amino acid N-terminal deleted form of Lef1 into the pEF5 plasmid. This construct also contains an IRES-EGFP cassette. The cDNA coding for the Icat protein was cloned into pIRES2-EGFP (BD Biosciences Clontech). Transfections were performed using the Effectene transfection reagent […] according to the user's manual. A Renilla luciferase plasmid (Promega) was included to control for transfection efficiency. Transfected cells were cultured in medium containing serum. […] Cells were harvested 24 hrs after transfection, and luciferase activity was assayed using the Dual Luciferase kit (Promega), according to the user's manual. […]

CFPAC-1 = test: Sensitivity of pancreatic adenocarcinoma cells to drug treatment (cell proliferation, apoptosis); settings: CFPAC-1 (CFPAC); vs untreated controls; FIG. 3B, 5
Procedure: The culture media was changed every 48 hrs.
Cells were pulsed with 10 μM BrdU for two hours and then harvested and fixed. BrdU incorporation was detected with a fluorescein isothiocyanate conjugated anti-BrdU antibody (BD Biosciences) and total DNA was stained with 7-AAD (BD Biosciences). FACS analysis was performed according to the BD Biosciences BrdU flow kit manual. Cells in S-phase were defined as the BrdU-positive cell population with a DNA content between 2N and 4N. According to the manual, apoptotic cells were defined as a subpopulation of G0/G1 cells with DNA content lower than the diploid amount (<2N).

Compound: CC1=C(CC(=O)O)c2cc(F)ccc2/C1=C\c1ccc([S+](C)[O-])cc1 (stereo not shown) [sulindac]
- Top-Flash reporter activity (Wnt signaling) [1]: inhibit Wnt activity; also recorded: inhibited; also recorded: showed an inhibitory effect
- Top-Flash reporter activity (Wnt signaling) ([1]; listed as Sulindac): suppressed Top-Flash reporter activation in all cell lines tested
- activity of the GliBS-luc Hedgehog reporter [2]: unaffected; also recorded: had no affect
- cell growth (proliferation, apoptosis) (CFPAC-1): not affected; also recorded: only marginally affected
